Measured values published in US20120328526A1, “Modulation of Nad+ Activity in Neuropathophysiological Conditions and Uses Thereof” (University of Maryland, Baltimore, priority 2011, published 2012).

Tested on: synaptosomes
Assay: NAD+ uptake by isolated synaptosomes (synaptosomal NAD(H) levels)
Set-up: species or system mouse

| Compound | increase of synaptosomal NAD(H) levels compared to control samples (synaptosomes incubated with 10 mM NAD+) | uptake of NAD+ by synaptosomes (purinergic receptor P2X(7)-gated channels inhibitor) |
| --- | --- | --- |
| NC(=O)c1ccc[n+]([C@@H]2O[C@H](COP(=O)([O-])OP(=O)(O)OC[C@H]3O[C@@H](n4cnc5c(N)ncnc54)[C@H](O)[C@@H]3O)[C@@H](O)[C@H]2O)c1 [NAD^+, nicotinamide adenine dinucleotide] | 2 fold | – |
| brilliant blue | – | blocked |
